Values of other authors in patent US20100173381A1, “CRYSTAL STRUCTURES OF HIV-1 PROTEASE INHIBITORS BOUND TO HIV-1 PROTEASE” (UNIVERSITY OF MASSACHUSETTS, priority 2006, published 2010).

What was measured:
[1] = humans
HIV-1 protease = HIV-1 protease (Human immunodeficiency virus type 1 group M subtype B, UniProt P04585)
[2] = tested on: the virus in cell cultures
HIV-1 protease mutants = conditions: M46I, T80I, P81S
drug-resistant HIV-1 = conditions: versus clinical protease inhibitors APV, LPV, ATV, SQV, IDV, NFV

| Compound | oral bioavailability [1] | inhibitory properties (HIV-1 protease) | potency against the virus in cell cultures [2] | potency against drug-resistant proteases (drug-resistant proteases) | resistance of quadruple-viral mutant (HIV-1 protease mutants; K45R) | resistance of single-, double- or triple-viral mutants (HIV-1 protease mutants; mutants from K45R) | cross-resistance profile (drug-resistant HIV-1) |
| --- | --- | --- | --- | --- | --- | --- | --- |
| Nc1cccc(CN2C(=O)N(Cc3cccc(N)c3)[C@H](Cc3ccccc3)[C@H](O)[C@@H](O)[C@H]2Cc2ccccc2)c1 [DMP-450] | orally bioavailable | excellent inhibitory properties | highly potent |  |  |  |  |
| COC(=O)N[C@H](C(=O)NCCCC[C@@H](CO)N(CC(C)C)S(=O)(=O)c1ccc(N)cc1)C(c1ccccc1)c1ccccc1 [PL-100] |  |  |  | highly potent | only mild resistance | did not show resistance | favorable cross-resistance profile |
